In article PMC9842534 (European Journal of Medicinal Chemistry, 2023):
Where a SMILES comes first, the peptide text is derived from it. Bridges are numbered along the chain shown (N, C = ends). [ ]: non-standard residue; d: D form. S5 = C=CCCC[C@](C)(N)C(=O)O

Target: SARS-CoV-2 Spike RBD-ACE2 interaction (Severe acute respiratory syndrome coronavirus 2, UniProt P0DTC2)
Format: binding, SARS-CoV-2 / human

CC(C)C[C@@H]1NC(=O)[C@H](CC(=O)O)NC(=O)[C@H](CCC(=O)O)NC(=O)[C@@](C)(NC(=O)[C@H](CCC(=O)O)NC(=O)[C@@H](N)Cc2c[nH]cn2)CCC/C=C\CCC[C@@](C)(C(=O)N[C@@H](Cc2ccc(O)cc2)C(=O)N[C@@H](CCC(N)=O)C(N)=O)NC1=O [Compound 6] (H-HE[S5]EDL[S5]YQ-NH2; staple (Z) 3-7; N-terminus and C-terminus assumed)
inhibition of the spike RBD-ACE2 interaction (in words): significant inhibitory activity
